Where two headings read alike, the source gives them in different places.
Experiments:
[1] = target: Human DP1 receptor (Homo sapiens (Human), UniProt Q13258); assay: Human DP1 inhibitory activity in DP1-expressing cell (PGD2-induced cAMP); assay type: cell-based
Method: Compounds were categorized as AA (cAMP is less than 100 nM) and A (cAMP is more than 100 nM and less than 5000 nM) as shown in Table 99 and 100.

[2] = target: CRTH2 (Homo sapiens (Human), UniProt Q9Y5Y4); assay: CRTH2 receptor binding inhibitory activity ([3H]-PGD2 displacement, membranes of CRTH2-expressing K562 cell); settings: [3H]-PGD2 displacement, membrane of CRTH2-expressing K562 cell, read-out: Ki
Outline: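 Incubation ran 60 min at room temperature using 20 μg/well membrane from CRTH2-expressing K562 cells in pH 7.4 Tris/HCl (50 mM) with 10 mM MgCl2.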

[3] = category of cAMP IC50, human DP1 receptor expressing Jurkut cell
[4] = CRTH2 receptor binding, categorized AAAA/AAA

Sequence of Human DP1 receptor (Q13258 whole entry): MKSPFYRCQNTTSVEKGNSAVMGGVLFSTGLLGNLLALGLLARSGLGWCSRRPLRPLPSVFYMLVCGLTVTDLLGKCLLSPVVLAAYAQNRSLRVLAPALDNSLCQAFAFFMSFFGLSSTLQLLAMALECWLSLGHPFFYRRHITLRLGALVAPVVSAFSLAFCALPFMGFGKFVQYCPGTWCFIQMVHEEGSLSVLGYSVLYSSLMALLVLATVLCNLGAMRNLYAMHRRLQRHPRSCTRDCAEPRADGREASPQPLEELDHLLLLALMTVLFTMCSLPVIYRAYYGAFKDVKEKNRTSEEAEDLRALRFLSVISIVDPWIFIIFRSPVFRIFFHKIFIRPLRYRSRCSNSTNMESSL
Sequence of CRTH2 (Q9Y5Y4 whole entry): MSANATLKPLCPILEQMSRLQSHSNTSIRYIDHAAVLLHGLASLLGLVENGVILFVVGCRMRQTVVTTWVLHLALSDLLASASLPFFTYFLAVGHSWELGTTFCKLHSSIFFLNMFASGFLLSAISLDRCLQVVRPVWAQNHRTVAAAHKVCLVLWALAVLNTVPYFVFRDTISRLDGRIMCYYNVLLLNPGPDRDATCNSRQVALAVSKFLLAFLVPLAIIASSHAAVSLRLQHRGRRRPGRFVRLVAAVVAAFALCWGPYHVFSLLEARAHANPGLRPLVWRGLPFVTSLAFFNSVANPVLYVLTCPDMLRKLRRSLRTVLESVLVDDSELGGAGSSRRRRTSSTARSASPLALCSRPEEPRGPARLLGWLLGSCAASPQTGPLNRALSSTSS

| SMILES | IC50 [1, 3] [nM] | Ki [2, 4] [nM] | Ki [2] [nM] | IC50 ([1]; IC50 of PGD2 (60 nM)-induced cAMP increase, human DP1 receptor expressing Jurkut cell) [nM] |
| --- | --- | --- | --- | --- |
| CCOc1ccc(S(=O)(=O)N2C[C@@H](C)[C@@H](n3nc(CC(=O)O)c4cc5c(cc43)OCO5)C2)cn1 [Compound I-176] | 100 to 5000 | < 100 |  |  |
| COc1ccc(S(=O)(=O)N2C[C@@H](C)[C@@H](n3nc(CC(=O)O)c4ccccc43)C2)s1 [Compound I-178] | 100 to 5000 | < 100 |  |  |
| COc1ccc(S(=O)(=O)N2C[C@@H](C)[C@@H](n3nc(CC(=O)O)c4ccc(F)cc43)C2)s1 [Compound I-179] | < 100 | < 100 |  |  |
| COc1ccc(S(=O)(=O)N2C[C@@H](C)[C@@H](n3nc(CC(=O)O)c4ccc(C)cc43)C2)s1 [Compound I-180] | 100 to 5000 | < 100 |  |  |
| CCOc1ccc(S(=O)(=O)N2C[C@@H](C)[C@@H](n3nc(CC(=O)O)c4ccccc43)C2)c(C=NOC)c1 [Compound I-181] | 100 to 5000 | 100 to 5000 |  |  |
| CCOc1ccc(S(=O)(=O)N2C[C@@H](C)[C@@H](n3nc(CC(=O)O)c4ccccc43)C2)c(/C=C/COC)c1 [Compound I-182] | 100 to 5000 | < 100 |  |  |
| CCOc1ccc(S(=O)(=O)N2C[C@@H](C)[C@@H](n3nc(CC(=O)O)c4ccccc43)C2)c(CCCOC)c1 [Compound I-183] | 100 to 5000 | < 100 |  |  |
| CCOc1ccc(S(=O)(=O)N2C[C@@H](C)[C@@H](n3nc(CC(=O)O)c4ccccc43)C2)c(COC)c1 [Compound I-184] | 100 to 5000 | < 100 |  |  |
| CCOc1ccc(S(=O)(=O)N2C[C@@H](C)[C@@H](n3nc(CC(=O)O)c4ccccc43)C2)c(/C=C/c2ccccc2)c1 [Compound I-185] | 100 to 5000 | < 100 |  |  |
| CCOc1ccc(S(=O)(=O)N2C[C@@H](C)[C@@H](n3nc(CC(=O)O)c4ccccc43)C2)c(CCc2ccccc2)c1 [Compound I-186] | 100 to 5000 | < 100 |  |  |
| CCOc1ccc(S(=O)(=O)N2C[C@@H](C)[C@@H](n3nc(CC(=O)O)c4ccccc43)C2)c(-c2ccccc2)c1 [Compound I-187] | 100 to 5000 | < 100 |  |  |
| CCOc1ccc(S(=O)(=O)N2C[C@@H](C)[C@@H](n3nc(CC(=O)O)c4ccccc43)C2)cc1[N+](=O)[O-] [Compound I-188] | 100 to 5000 | 100 to 5000 |  |  |
| COCCOc1ccc(S(=O)(=O)N2C[C@@H](C)[C@@H](n3nc(CC(=O)O)c4ccccc43)C2)cc1 [Compound I-189] | 100 to 5000 | < 100 |  |  |
| CC(C)OCCOc1ccc(S(=O)(=O)N2C[C@@H](C)[C@@H](n3nc(CC(=O)O)c4ccccc43)C2)cc1 [Compound I-190] | 100 to 5000 | < 100 |  |  |
| CCOCCOc1ccc(S(=O)(=O)N2C[C@@H](C)[C@@H](n3nc(CC(=O)O)c4ccccc43)C2)cc1 [Compound I-191] | 100 to 5000 | < 100 |  |  |
| C[C@@H]1CN(S(=O)(=O)c2ccc(OCCOc3ccccc3)cc2)C[C@@H]1n1nc(CC(=O)O)c2ccccc21 [Compound I-192] | 100 to 5000 | < 100 |  |  |
| C[C@@H]1CN(S(=O)(=O)c2ccc(OCCOC(C)(C)C)cc2)C[C@@H]1n1nc(CC(=O)O)c2ccccc21 [Compound I-193] | 100 to 5000 | 100 to 5000 |  |  |
| C[C@H]1CN(S(=O)(=O)c2ccc(OC(F)F)cc2)C[C@@H]1n1nc(CC(=O)O)c2ccccc21 [Compound I-194] | 100 to 5000 | < 100 |  |  |
| C[C@@H]1CN(S(=O)(=O)c2ccc(OC(F)F)cc2)C[C@H]1n1nc(CC(=O)O)c2ccccc21 [Compound I-195] | 100 to 5000 | < 100 |  |  |
| CCOc1ccc(S(=O)(=O)N2C[C@H](n3nc(CC(=O)O)c4ccccc43)C[C@@H]2C)cc1 [Compound I-196] | < 100 | < 100 |  |  |
| CCOc1ccc(S(=O)(=O)N2C[C@@H](C)[C@H](n3nc(CC(=O)O)c4ccccc43)C2)cc1 [Compound I-197] | 100 to 5000 | 100 to 5000 |  |  |
| CCOc1ccc(S(=O)(=O)N2C[C@H](C)[C@@H](n3nc(CC(=O)O)c4ccccc43)C2)cc1 [Compound I-198] | 100 to 5000 | < 100 |  |  |
| CC(C)Oc1ccc(S(=O)(=O)N2C[C@@H](C)[C@H](n3nc(CC(=O)O)c4ccccc43)C2)cc1 [Compound I-199] | 100 to 5000 | 100 to 5000 |  |  |

| SMILES | IC50 [1, 3] [nM] | Ki [2, 4] [nM] | Ki [2] [nM] | IC50 ([1]; IC50 of PGD2 (60 nM)-induced cAMP increase, human DP1 receptor expressing Jurkut cell) [nM] |
| --- | --- | --- | --- | --- |
| CCOc1ccc(S(=O)(=O)N2C[C@@H](C)[C@@H](n3nc(CC(=O)O)c4ccccc43)C2)c(C#N)c1 [Compound I-200] | < 100 | < 100 |  |  |
| CCOc1ccc(S(=O)(=O)N2C[C@H](C)[C@@H](n3nc(CC(=O)O)c4ccccc43)C2)cn1 [Compound I-201] | 100 to 5000 | < 100 |  |  |
| CCOc1ccc(S(=O)(=O)N2C[C@@H](C)[C@@H](n3nc(CC(=O)O)c4cc(C)ccc43)C2)cc1 [Compound I-202] | < 100 | 100 to 5000 |  |  |
| Cc1ccc2c(c1)c(CC(=O)O)nn2[C@H]1CN(S(=O)(=O)c2ccc(OC(C)C)cc2)C[C@H]1C [Compound I-203] | < 100 | 100 to 5000 |  |  |
| COc1ccc2c(CC(=O)O)nn([C@H]3CN(S(=O)(=O)c4ccc(OC(C)C)cc4)C[C@H]3C)c2c1 [Compound I-204] | < 100 | < 100 |  |  |
| CCOc1ccc(S(=O)(=O)N2C[C@@H](C)[C@@H](n3nc(CC(=O)O)c4c(C)cccc43)C2)cn1 [Compound I-206] | < 100 | 100 to 5000 |  |  |
| CCOc1ccc(S(=O)(=O)N2C[C@H](n3nc(CC(=O)O)c4ccccc43)C[C@@H]2CF)cc1 [Compound I-209] | < 100 | 100 to 5000 |  |  |
| CC(C)Oc1ccc(S(=O)(=O)N2CC[C@@H](n3nc(CC(=O)O)c4ccc(F)cc43)[C@@H]2C)cc1 [Compound I-210] | 100 to 5000 | < 100 | 10 |  |
| CCOc1ccc(S(=O)(=O)N2C[C@@H](C)[C@@H](n3nc(CC(=O)NS(C)(=O)=O)c4ccccc43)C2)cc1 [Compound I-212] | 100 to 5000 | 100 to 5000 |  |  |
| C[C@@H]1CN(S(=O)(=O)c2ccc(Oc3ccccc3)nc2)C[C@@H]1n1nc(CC(=O)O)c2ccccc21 [Compound I-213] | 100 to 5000 | 100 to 5000 |  |  |
| Cc1nc2ccc(S(=O)(=O)N3C[C@@H](C)[C@@H](n4nc(CC(=O)O)c5ccccc54)C3)cc2s1 [Compound I-214] | < 100 | 100 to 5000 |  |  |
| C[C@@H]1CN(S(=O)(=O)c2ccc3occc3c2)C[C@@H]1n1nc(CC(=O)O)c2ccccc21 [Compound I-215] | 100 to 5000 | < 100 | 22 |  |
| CCOc1ccc(S(=O)(=O)N2C[C@@H](C)[C@@H](n3nc(CC(=O)O)c4ccccc43)C2)c(Br)c1 [Compound I-216] | < 100 | < 100 |  |  |
| CCOc1ccc(S(=O)(=O)N2C[C@H](n3nc(CC(=O)O)c4ccc(F)cc43)[C@H](C)[C@H]2C#N)cc1 [Compound I-217] | < 100 | < 100 |  |  |
| COc1ccc(S(=O)(=O)N2C[C@@H](C)[C@@H](n3nc(CC(=O)O)c4cc(Cl)ccc43)C2)cc1 [Compound I-218] | < 100 | 100 to 5000 |  |  |
| CCOc1ccc(S(=O)(=O)N2C[C@@H](C)[C@@H](n3nc(CC(=O)O)c4ccc(N5CCOCC5)cc43)C2)cc1 [Compound I-219] | 100 to 5000 | 100 to 5000 | 230 |  |
| CCOc1ccc(S(=O)(=O)N2C[C@@H](C)[C@@H](n3nc(CC(=O)O)c4ccc(C5=CCCCC5)cc43)C2)cc1 [Compound I-220] | < 100 | < 100 | 8.1 | 32 |
| CCOc1ccc(S(=O)(=O)N2C[C@@H](C)[C@@H](n3nc(CC(=O)O)c4ccc(C5=CCCCC5)cc43)C2)cn1 [Compound I-221] | < 100 | < 100 |  |  |
| CCOc1ccc(S(=O)(=O)N2C[C@@H](C)[C@@H](n3nc(CC(=O)O)c4ccc(C5CCCCC5)cc43)C2)cc1 [Compound I-223] | 100 to 5000 | < 100 |  |  |
| CCOc1ccc(S(=O)(=O)N2C[C@@H](C)[C@@H](n3nc(CC(=O)O)c4ccc(C5CCCCC5)cc43)C2)cn1 [Compound I-224] | 100 to 5000 | < 100 |  |  |
| CCOc1ccc(S(=O)(=O)N2C[C@@H](C)[C@@H](n3nc(CC(=O)O)c4ccc(OC)cc43)C2)cc1 [Compound I-225] | < 100 | < 100 |  |  |
| CCOc1ccc(S(=O)(=O)N2C[C@@H](C)[C@@H](n3nc(CC(=O)O)c4ccc(OC)cc43)C2)cn1 [Compound I-226] | 100 to 5000 | < 100 |  |  |

Reference: patent US9725442B2, “Heterocyclic derivative having PGD2 receptor antagonist activity” (Shionogi & Co., Ltd., priority 2011, dated 2017)
